Test results reported in US20030203908A1, “Dihydrofolate reductase inhibitors” (priority 2000, published 2003).
≈ marks a conversion by molar mass, not a printed value. Where two headings read alike, the source gives them in different places.

Tests used:
[1] = test system: Plasmodium berghei; assay: In vivo activity against Plasmodium berghei in mice; conditions: P. berghei
Description: These analogues were tested in vivo in a mice against Plasmodium berghei.

[2] = test system: P. falciparum 3D7 (wild-type strain); assay: In vitro inhibition of P. falciparum 3D7; type: cell-based, Plasmodium falciparum; conditions: Plasmodium falciparum, 3D7 strain, read-out: Pf-3D7 ED50
[3] = molecular target: T1, wild-type (wt) DHFR from Plasmodium falciparum (Plasmodium falciparum, UniProt P13922, N108S/R59C); assay: Inhibition of wild-type pfDHFR (spectrophotometric, Ki); type: biochemical;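 note: Affinity-purified enzyme, initial reaction rates measured across a range of inhibitor concentrations, Ki obtained by nonlinear least-squares fitting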
T1 construct: The Dihydrofolate Reductase Domain of Plasmodium falciparum Thymidylate Synthase-Dihydrofolate Reductase; made in house
Description: (§2) For determination of the Ki values of a number of synthesized analogues, the assay reactions were initiated with affinity-purified enzyme (^˜0.005-0.01 U ml^−1), and the initial velocities in the presence of varying concentrations of inhibitors were analysed by non-linear least square fit using Kaleidagraph™ software.

[4] = test system: A16V.S108T mutant (mut) of DHFR from Plasmodium falciparum; assay: biochemical; conditions: resistance factor
Description: as §2

[5] = molecular target: T2, A16V.S108T mutant (mut) of DHFR from Plasmodium falciparum (Plasmodium falciparum, UniProt A7UD81, A16V/S108T); assay: biochemical
T2 construct: The Dihydrofolate Reductase Domain of Plasmodium falciparum Thymidylate Synthase-Dihydrofolate Reductase; made in house
Description: as §2

[6] = test system: wild-type (TM4/8.2) strain of P. falciparum; assay: microbe, parasite or virus in culture; type: cell-based, Plasmodium falciparum; conditions: wild-type strain TM4/8.2
Description: (§1) Mol. Biochem. Parasitol. […] Science, 1976, 193, 673-675]. In vitro antimalarial activity was determined by using [^3H]-hypoxanthine incorporation method [Desjardins, R. E.; Canfield, C. J.; Haynes, J. D.; Chulay, J. D. Quantitative assessment of antimalarial activity in vitro by a semiautomated microdilution technique. Antimicrob Agents Chemother. 1979, 16, 710-718]. The drugs were initially dissolved in DMSO and diluted with the culture media. Aliquots (25 μl) of drug solution of different concentrations was placed in 96-well plate together with 200 μl of 1.5% cell suspension of parasitized erythrocytes containing 1-2% parasitemia. Final concentration of DMSO was 0.1% where there was no effect on the parasite growth. The mixtures were incubated in a 3% CO2 incubator at 37° C. After 24 h of incubation, 25 μl (0.25 μCi) of [^3H]-hypoxanthine were added to each well. The mixtures were further incubated under the same condition for 18-24 h. DNA of parasites was harvested onto glass filter paper (Unifilter, Packard, USA). The filters were dried and liquid scintillation fluid was added for radioactivity measurement in a 6-probe liquid scintillation-counter (Packard, USA).

[7] = test system: P. falciparum FCR3 (resistant strain containing the A16V.S108T DHFR mutant); assay: In vitro inhibition of P. falciparum FCR3; type: cell-based, Plasmodium falciparum; conditions: Plasmodium falciparum; in vitro, FCR3 strain; read-out: Pf-FCR3 ED50
[8] = test system: resistant T9/94 strain of P. falciparum (A16V.S108T pfDHFR); assay: In vitro antimalarial activity, [3H]-hypoxanthine incorporation, T9/94; type: cell-based, Plasmodium falciparum; conditions: resistant strain T9/94
Description: as §1

[9] = molecular target: T3, DHFR-TS from Trypanosoma cruzi (Trypanosoma cruzi, UniProt Q27793); assay: Inhibition of T. cruzi DHFR-TS (I50-derived Ki); type: biochemical;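 note: enzymes were recombinant T. cruzi DHFR-TS and human DHFR, both expressed in E. coli and purified on a methotrexate affinity column, with dihydrofolate and NADPH as substrates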
T3 construct: pET 11c with the insertion of the complete ORF of the gene tc-dhfrts; made in house; host or cells: E. coli BL21 (DE3)

[10] = molecular target: human DHFR; assay: Inhibition of human DHFR (I50-derived Ki); type: biochemical;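 note: recombinant human DHFR expressed in E. coli and purified by methotrexate affinity chromatography, enzyme activity followed spectrophotometrically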
Description: (§3) Folic acid and NADPH, were purchased from Sigma. Dihydrofolate was prepared from folic acid dithionate reduction. Methotrexate (MTX) was from Lederle Laboratories. MTX sepharose CL-6B was prepared according to the protocol described by Dann. et al. IPTG came from Boehringer Manheim. The expression system used for recombinant human DHFR production, which includes the plasmid PB-E1/RB SII, SphI-HDHFR expressed in E. coli M15, was supplied by Santi, D. V (Department of Biochemistry and Biophysics and Department of Pharmaceutical Chemistry, University of California). Recombinant T. Cruzi DHFR-TS was produced using the system pET 11c with the insertion of the complete ORF of the gene tc-dhfrts. The resulting plasmid was called pET DT.
(§4) Human and T.cruzi DHFR were produced using inducible expression systems. For human DHFR, fresh overnight cultures of E. coli M15, transformed with the plasmid, pB-E1/RB SII, SphI-HDHFR, were grown in LB and 0.1 mg/ml ampicillin medium at 28° C. For T.cruzi DHFR-TS, cultures of E. coli, BL21 (DE3) transformed with the plasmid pETDT system were grown at 37° C. The same purification protocol was used for both systems. When OD600 was at 0.8, cells pellets were collected by centrifugation, suspended in 50 ml of LB medium, containing 0.1 mg/ml of ampicillin. 10 ml of this preinocule was added to 2 litres of LB medium. Cultures were shaken at 28° C. or 37° C. (for human and T. cruzi DHFR respectively) and induction with IPTG ImM was performed when OD600 reached 0.8. After IPTG induction, cells were grown overnight in a shaker at 28° C. or 5 hours at 28° C. or 37° C. (for human and T. cruzi DHFR respectively) and then harvested by centrifugation.
(§5) Cell pellets were suspended in sonication buffer (2× TES DHFR:TES 100 mM, 2-mercaptoethanol 150 mM, EDTA 2 mM pH=7) containing protease inhibitors.
(§6) Crude extract was circulated through the MTX-Sepharose column at 4° C. at a flow rate of 0.2 ml/min until the protein was bound to the resin. The column was washed with an excess of buffer B (KH2PO410 mM pH 7, KC1 1M). Protein was eluted at 0.2 min/ml with an elution buffer (100 mM TES, 10 mM DTT, 2 mM EDTA, DHF 8.5 mM), the elution profile was collected in 1 ml fractions using a Pharmacia LKB Frac 200 collector. Finally, the protein was desalted using molecular size exclusion chromatography in a Pharmacia G-25 column. Fractions containing DHFR activity were pooled and concentrated by ultrafiltration using centripreps Amicon.
(§7) The purity of the protein preparation was assessed by detection of a single band of the correct molecular weight stained with coomasie blue following a 12% SDS-PAGE. Protein concentration was determined by the method of Bradford using a BSA as a standard. DHFR activity was measured spectrophotometrically by monitoring the decrease in absorbance at 340 mm. […] One unit of enzyme, is defined as the amount of enzyme which produces 1 nmol of product per min using ε of 12300M^−1 at 340 nm.
(§8) Inhibition of dihydrofolate reductases by 1,2-dihydro-1,3,5 triazines was analysed with T. cruzi and human DHFR.
(§9) DHFR assays contained 30 mM dihydrofolate, 0.1 mM NADPH, 50 mM TES buffer pH 7, 75 mM 2-mercaptoethanol and specified amounts of inhibitors. The reaction was initiated by addition of 2.8 or 2.3 units of T. cruzi and human, respectively, and monitored at 340 nm.
(§10) Selective inhibition of dihydrofolate reductase by 1,2-dihydro-1,3,5-triazines was analysed with T. cruzi and human DHFR. DHFR assays contained 30 μM dihydrofolate, 0.1 mM NADPH, 50 mM TES buffer pH 7, 75 mM β-mercaptoethanol and specified amounts of inhibitors. The reaction was initiated by addition of 2.8 or 2.3 units of T. cruzi and human enzyme, respectively, and monitored at 340 nm. […] KiI 50=[I]0.5/((1+[S])/Km)

[11] = molecular target: T4, human DHFR (Homo sapiens, UniProt P00374); assay: Inhibition of human DHFR (I50-derived Ki); type: biochemical;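 note: recombinant human DHFR expressed in E. coli and purified by methotrexate affinity chromatography, enzyme activity followed spectrophotometrically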
T4 construct: made in house; host or cells: E. coli M15
T4 sequence (P00374 1-187): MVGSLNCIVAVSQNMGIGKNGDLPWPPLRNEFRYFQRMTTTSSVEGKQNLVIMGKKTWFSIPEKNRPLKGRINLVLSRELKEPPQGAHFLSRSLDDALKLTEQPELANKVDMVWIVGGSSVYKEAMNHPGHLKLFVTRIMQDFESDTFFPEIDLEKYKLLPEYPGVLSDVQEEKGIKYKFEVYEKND
Description: as §3, §4, §5, §6, §7, §8, §9, §10

[12] = A16V.S108T mutant pfDHFR, read-out: Ki(mut)

T1 sequence (P13922 10-228 R59C/N108S): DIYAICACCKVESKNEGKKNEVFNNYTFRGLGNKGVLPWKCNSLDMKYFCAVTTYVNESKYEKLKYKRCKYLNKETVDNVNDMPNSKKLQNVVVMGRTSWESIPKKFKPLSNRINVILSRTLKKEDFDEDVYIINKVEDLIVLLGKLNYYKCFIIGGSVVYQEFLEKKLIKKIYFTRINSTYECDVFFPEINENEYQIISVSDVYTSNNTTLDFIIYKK
T2 sequence (A7UD81 1-231 A16V/S108T): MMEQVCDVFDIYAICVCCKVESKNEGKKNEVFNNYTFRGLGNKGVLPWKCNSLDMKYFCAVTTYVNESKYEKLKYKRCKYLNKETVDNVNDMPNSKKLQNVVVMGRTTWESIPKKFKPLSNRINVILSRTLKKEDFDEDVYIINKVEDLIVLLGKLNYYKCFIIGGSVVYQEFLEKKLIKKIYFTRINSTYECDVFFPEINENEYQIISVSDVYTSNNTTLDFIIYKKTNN
T3 sequence (Q27793 whole entry): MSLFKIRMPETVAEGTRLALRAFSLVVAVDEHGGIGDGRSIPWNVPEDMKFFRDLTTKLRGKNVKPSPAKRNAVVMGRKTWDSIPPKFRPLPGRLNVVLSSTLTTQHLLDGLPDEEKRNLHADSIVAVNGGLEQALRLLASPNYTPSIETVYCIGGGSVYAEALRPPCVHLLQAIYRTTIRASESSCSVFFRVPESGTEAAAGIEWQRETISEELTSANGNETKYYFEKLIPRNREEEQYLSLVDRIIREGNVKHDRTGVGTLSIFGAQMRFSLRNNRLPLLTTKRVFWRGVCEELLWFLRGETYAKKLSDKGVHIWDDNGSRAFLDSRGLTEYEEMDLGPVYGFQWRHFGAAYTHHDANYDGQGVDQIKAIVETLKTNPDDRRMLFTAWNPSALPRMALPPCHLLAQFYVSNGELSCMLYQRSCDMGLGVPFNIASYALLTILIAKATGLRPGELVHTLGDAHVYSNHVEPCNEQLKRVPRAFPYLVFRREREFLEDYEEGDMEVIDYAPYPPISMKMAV

| Compound | Ki(mut)/Ki(wt) [4] | IC50 [8] [nM] | Ki ([3]; read-out: Ki(wt)) [nM] | Ki [5, 12] [nM] | IC50 [6] [nM] | also measured |
| --- | --- | --- | --- | --- | --- | --- |
| CCN(CC)CCCC(C)Nc1ccnc2cc(Cl)ccc12 (centres unmarked) [Chloroquine, reference compound] |  |  |  |  |  | Mean % infected RBC ([1]; 10 mg/kg daily x4): 3.58% |
| NC1=NC(c2cccc(Oc3ccc(Cl)cc3)c2)N(c2cccc(Cl)c2)C(N)=N1 (centres unmarked) [(Ib) R2=3-(4-chlorophenoxy)phenyl] | 2.7 |  |  |  |  | Mean % infected RBC ([1]; 25 mg/kg daily x4): 5.0%; IC50 [2]: 0.36 µg/mL (≈ 0.844 µM); Ki ([3]; Ki(wt) nM): 1.3 nM; Ki [5]: 3.5 ± 0.5 nM; IC50 ([6]; Plasmodium falciparum): 3950 nM; IC50 [7]: 0.078 µg/mL (≈ 0.183 µM) |
| CCCCOc1ccc(C2N=C(N)N=C(N)N2OCCCOc2cc(Cl)c(Cl)cc2Cl)cc1 (centres unmarked) [1-[3′-(2,4,5-trichlorophenoxy)-n-propyloxy]-2-p-n-butyloxyphenyl-4,6-diamino-1,2-dihydro-1,3,5-triazine] | 2.6 | 41 | 3.2 ± 0.4 | 8.2 ± 0.8 | 1490 |  |
| NC1=NC(c2ccc(Oc3ccc(C(F)(F)F)cc3)cc2)N(c2cccc(Cl)c2)C(N)=N1 (centres unmarked) [R2=4-(4-CF3PhO)C6H4, X=H, Y=Cl] |  |  |  |  |  | Mean % infected RBC ([1]; 24 mg/kg daily x4): 4.4% |
| NC1=NC(c2cccc(Oc3ccccc3)c2)N(c2ccc(OCc3ccccc3)cc2)C(N)=N1 (centres unmarked) [1-p-Benzyloxyphenyl-2-m-phenoxyphenyl-4,6-diamino-1,2-dihydro-1,3,5-triazine] | 5 |  |  |  |  | Ki ([3]; Ki(wt) nM): 0.9 ± 0.2 nM; Ki [9]: 3 nM; Selectivity ([9]; human Ki / T. cruzi Ki): 3.3; Ki (human)/Ki (P. falc. mut) [10]: 2.2; Ki (human)/Ki (P. falc. wt) [10]: 11; Ki (human)/Ki (T. cruzi) [10]: 3.33; Ki ([11]; Human Ki (I50)(nM), human DHFR): 10 nM; inhibitory activity against human DHFR ([11]; compared with methotrexate): comparable to that of methotrexate; Ki [5]: 4.5 ± 0.6 nM; melting point: 208 to 210 °C; IC50 ([6]; Plasmodium falciparum): 255 nM |
| CCCOc1ccc(C2N=C(N)N=C(N)N2OCCCOc2cc(Cl)c(Cl)cc2Cl)cc1 (centres unmarked) [1-[3′-(2,4,5-trichlorophenoxy)-n-propyloxy]-2-p-n-propyloxyphenyl-4,6-diamino-1,2-dihydro-1,3,5-triazine] | 3.6 | 29 | 1.7 ± 0.3 | 6.1 ± 0.7 | 948 |  |
| CCCOc1cccc(C2N=C(N)N=C(N)N2c2cccc(/C=C/c3ccc(Cl)cc3Cl)c2)c1 (centres unmarked) [(Id2) R2=3-propyloxyphenyl] | 14.8 | 5410 | 1.3 ± 0.3 | 19.2 ± 2.7 | 25400 |  |
| NC1=NC(c2cccc(Oc3ccc(Cl)cc3)c2)N(c2cccc(/C=C/c3ccc(Cl)cc3Cl)c2)C(N)=N1 (centres unmarked) [(Id2) R2=3-(4-chlorophenoxy)phenyl] | 0.9 | > 10000 | 219 ± 11 | 210 ± 18 | > 10000 |  |
